# Tested on: HCV genotype-1a variant with glutamine 30 changed to glutamate in the NS5A protein
# Assay type: cell-based
# Details: test compound titrated with BMS-790052 fixed at 200 nM; genotype 1a Q30E replicon
# Summary of the method: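 Synergy was assessed by combining several fixed amounts of an NS5A-targeting compound with a titration of the second compound of interest.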
row,SMILES,Fold-Synergistic 1a (Q30E) [fold]
1,CC(C)[C@H](NC(=O)C1(c2ccc(F)cc2)CCC1)c1ncc(-c2ccc(-c3ccc(-c4cnc([C@@H](NC(=O)C5(c6ccc(F)cc6)CCC5)C(C)C)[nH]4)cc3)cc2)[nH]1 [Compound P-82],>100
2,CC(C)[C@H](NC(=O)C1CC(F)(F)C1)c1ncc(-c2ccc(-c3ccc(-c4cnc([C@@H](NC(=O)C5CC(F)(F)C5)C(C)C)[nH]4)cc3)cc2)[nH]1 [Compound P-83],>100
3,CC(C)[C@H](NC(=O)C1(C)COC1)c1ncc(-c2ccc(-c3ccc(-c4cnc([C@@H](NC(=O)C5(C)COC5)C(C)C)[nH]4)cc3)cc2)[nH]1 [Compound P-84],>100
4,CO[C@H](C(=O)N[C@H](c1ncc(-c2ccc(-c3ccc(-c4cnc([C@@H](NC(=O)[C@@H](OC)c5ccccc5)C(C)C)[nH]4)cc3)cc2)[nH]1)C(C)C)c1ccccc1 [Compound P-85],>100
5,CC(C)[C@H](NC(=O)C(C)(C)C(F)(F)F)c1ncc(-c2ccc(-c3ccc(-c4cnc([C@@H](NC(=O)C(C)(C)C(F)(F)F)C(C)C)[nH]4)cc3)cc2)[nH]1 [Compound P-87],>100
6,CC(C)[C@H](NC(=O)C1(C(F)(F)F)CC1)c1ncc(-c2ccc(-c3ccc(-c4cnc([C@@H](NC(=O)C5(C(F)(F)F)CC5)C(C)C)[nH]4)cc3)cc2)[nH]1 [Compound P-88],>100
7,CC(C)[C@H](NC(=O)c1cc(Cl)cs1)c1ncc(-c2ccc(-c3ccc(-c4cnc([C@@H](NC(=O)c5cc(Cl)cs5)C(C)C)[nH]4)cc3)cc2)[nH]1 [Compound P-90],>100
8,CC(C)[C@H](NC(=O)c1ccc(Cl)s1)c1ncc(-c2ccc(-c3ccc(-c4cnc([C@@H](NC(=O)c5ccc(Cl)s5)C(C)C)[nH]4)cc3)cc2)[nH]1 [Compound P-91],>100
9,CC(C)[C@H](NC(=O)c1cocn1)c1ncc(-c2ccc(-c3ccc(-c4cnc([C@@H](NC(=O)c5cocn5)C(C)C)[nH]4)cc3)cc2)[nH]1 [Compound P-92],>10
10,Cc1ncoc1C(=O)N[C@H](c1ncc(-c2ccc(-c3ccc(-c4cnc([C@@H](NC(=O)c5ocnc5C)C(C)C)[nH]4)cc3)cc2)[nH]1)C(C)C [Compound P-93],>100
11,CC(C)[C@H](NC(=O)c1cnco1)c1ncc(-c2ccc(-c3ccc(-c4cnc([C@@H](NC(=O)c5cnco5)C(C)C)[nH]4)cc3)cc2)[nH]1 [Compound P-94],>10
12,CC(C)[C@H](NC(=O)Cc1ncccn1)c1ncc(-c2ccc(-c3ccc(-c4cnc([C@@H](NC(=O)Cc5ncccn5)C(C)C)[nH]4)cc3)cc2)[nH]1 [Compound P-95],>10
13,CC(C)[C@H](NC(=O)c1nn(C)c2ccccc12)c1ncc(-c2ccc(-c3ccc(-c4cnc([C@@H](NC(=O)c5nn(C)c6ccccc56)C(C)C)[nH]4)cc3)cc2)[nH]1 [Compound P-96],>100
14,CC(C)[C@H](NC(=O)C(F)(F)c1ccccc1)c1ncc(-c2ccc(-c3ccc(-c4cnc([C@@H](NC(=O)C(F)(F)c5ccccc5)C(C)C)[nH]4)cc3)cc2)[nH]1 [Compound P-97],>100
15,CC(C)[C@H](NC(=O)c1cc2ccccc2s1)c1ncc(-c2ccc(-c3ccc(-c4cnc([C@@H](NC(=O)c5cc6ccccc6s5)C(C)C)[nH]4)cc3)cc2)[nH]1 [Compound P-98],>100
16,CC(C)[C@H](NC(=O)C(C)(C)F)c1ncc(-c2ccc(-c3ccc(-c4cnc([C@@H](NC(=O)C(C)(C)F)C(C)C)[nH]4)cc3)cc2)[nH]1 [Compound P-99],>100
17,CC(C)[C@H](NC(=O)c1coc2ccccc12)c1ncc(-c2ccc(-c3ccc(-c4cnc([C@@H](NC(=O)c5coc6ccccc56)C(C)C)[nH]4)cc3)cc2)[nH]1 [Compound P-100],>100
18,CC(C)[C@H](NC(=O)c1ccc(C#N)s1)c1ncc(-c2ccc(-c3ccc(-c4cnc([C@@H](NC(=O)c5ccc(C#N)s5)C(C)C)[nH]4)cc3)cc2)[nH]1 [Compound P-101],>100
19,COC(=O)N[C@@H](C(=O)N[C@H](c1ncc(-c2ccc(-c3ccc(-c4cnc([C@@H](NC(=O)[C@H](NC(=O)OC)C5CC5)C(C)C)[nH]4)cc3)cc2)[nH]1)C(C)C)C1CC1 [Compound P-102],>10
20,COC(=O)N[C@@H](C(=O)N[C@H](c1ncc(-c2ccc(-c3ccc(-c4cnc([C@@H](NC(=O)[C@H](NC(=O)OC)c5ccccc5)C(C)C)[nH]4)cc3)cc2)[nH]1)C(C)C)c1ccccc1 [Compound P-103],>100
21,CC[C@@H](NC(=O)OC)C(=O)N[C@H](c1ncc(-c2ccc(-c3ccc(-c4cnc([C@@H](NC(=O)[C@@H](CC)NC(=O)OC)C(C)C)[nH]4)cc3)cc2)[nH]1)C(C)C [Compound P-104],>100

row,SMILES,Fold-Synergistic 1a (Q30E) [fold]
1,COC(=O)N[C@H](CC(C)C)C(=O)N[C@H](c1ncc(-c2ccc(-c3ccc(-c4cnc([C@@H](NC(=O)[C@@H](CC(C)C)NC(=O)OC)C(C)C)[nH]4)cc3)cc2)[nH]1)C(C)C [Compound P-105],>100
2,COC(=O)N[C@H](Cc1ccccc1)C(=O)N[C@H](c1ncc(-c2ccc(-c3ccc(-c4cnc([C@@H](NC(=O)[C@@H](Cc5ccccc5)NC(=O)OC)C(C)C)[nH]4)cc3)cc2)[nH]1)C(C)C [Compound P-106],>100
3,COC(=O)N(C)[C@H](C(=O)N[C@H](c1ncc(-c2ccc(-c3ccc(-c4cnc([C@@H](NC(=O)[C@H](C(C)C)N(C)C(=O)OC)C(C)C)[nH]4)cc3)cc2)[nH]1)C(C)C)C(C)C [Compound P-107],>100
4,CC(C)[C@H](NC(=O)[C@H]1Cc2ccccc21)c1ncc(-c2ccc(-c3ccc(-c4cnc([C@@H](NC(=O)[C@H]5Cc6ccccc65)C(C)C)[nH]4)cc3)cc2)[nH]1 [Compound P-109],>100
5,CC(C)[C@H](NC(=O)[C@@H]1Cc2ccccc21)c1ncc(-c2ccc(-c3ccc(-c4cnc([C@@H](NC(=O)[C@@H]5Cc6ccccc65)C(C)C)[nH]4)cc3)cc2)[nH]1 [Compound P-110],>100
6,CC(C)[C@H](NC(=O)C(=O)C1(C)CCC(F)(F)CC1)c1ncc(-c2ccc(-c3ccc(-c4cnc([C@@H](NC(=O)C(=O)C5(C)CCC(F)(F)CC5)C(C)C)[nH]4)cc3)cc2)[nH]1 [Compound P-112],>100
7,COc1ccc(C(=O)C(=O)N[C@H](c2ncc(-c3ccc(-c4ccc(-c5cnc([C@@H](NC(=O)C(=O)c6ccc(OC)c(Cl)c6)C(C)C)[nH]5)cc4)cc3)[nH]2)C(C)C)cc1Cl [Compound P-113],>100
8,CC(C)[C@H](NC(=O)C(=O)C1(C)CCCC1)c1ncc(-c2ccc(-c3ccc(-c4cnc([C@@H](NC(=O)C(=O)C5(C)CCCC5)C(C)C)[nH]4)cc3)cc2)[nH]1 [Compound P-114],>100
9,CC(C)[C@H](NC(=O)C(=O)C1(C)CCC1)c1ncc(-c2ccc(-c3ccc(-c4cnc([C@@H](NC(=O)C(=O)C5(C)CCC5)C(C)C)[nH]4)cc3)cc2)[nH]1 [Compound P-115],>100
10,COC1(C(=O)C(=O)N[C@H](c2ncc(-c3ccc(-c4ccc(-c5cnc([C@@H](NC(=O)C(=O)C6(OC)CCC6)C(C)C)[nH]5)cc4)cc3)[nH]2)C(C)C)CCC1 [Compound P-116],>100
11,CCOC(C)(C)C(=O)C(=O)N[C@H](c1ncc(-c2ccc(-c3ccc(-c4cnc([C@@H](NC(=O)C(=O)C(C)(C)OCC)C(C)C)[nH]4)cc3)cc2)[nH]1)C(C)C [Compound P-117],>100
12,CC(C)[C@H](NC(=O)C(=O)C1(C)CCCO1)c1ncc(-c2ccc(-c3ccc(-c4cnc([C@@H](NC(=O)C(=O)C5(C)CCCO5)C(C)C)[nH]4)cc3)cc2)[nH]1 (stereo partly drawn) [Compound P-118],>100
13,COc1cccc(C(=O)C(=O)N[C@H](c2ncc(-c3ccc(-c4ccc(-c5cnc([C@@H](NC(=O)C(=O)c6cccc(OC)c6F)C(C)C)[nH]5)cc4)cc3)[nH]2)C(C)C)c1F [Compound P-119],>100
14,CC(C)[C@H](NC(=O)C(=O)c1ncccc1F)c1ncc(-c2ccc(-c3ccc(-c4cnc([C@@H](NC(=O)C(=O)c5ncccc5F)C(C)C)[nH]4)cc3)cc2)[nH]1 [Compound P-120],>100
15,CC(C)[C@H](NC(=O)C(=O)c1ccncc1F)c1ncc(-c2ccc(-c3ccc(-c4cnc([C@@H](NC(=O)C(=O)c5ccncc5F)C(C)C)[nH]4)cc3)cc2)[nH]1 [Compound P-121],>100
16,CC(C)[C@H](NC(=O)C(=O)c1ccccc1OC(F)F)c1ncc(-c2ccc(-c3ccc(-c4cnc([C@@H](NC(=O)C(=O)c5ccccc5OC(F)F)C(C)C)[nH]4)cc3)cc2)[nH]1 [Compound P-122],>100
17,COC1(C(=O)C(=O)N[C@H](c2ncc(-c3ccc(-c4ccc(-c5cnc([C@@H](NC(=O)C(=O)C6(OC)CC6)C(C)C)[nH]5)cc4)cc3)[nH]2)C(C)C)CC1 [Compound P-123],>100
18,CC(C)[C@H](NC(=O)C(=O)C(C)(C)C(F)F)c1ncc(-c2ccc(-c3ccc(-c4cnc([C@@H](NC(=O)C(=O)C(C)(C)C(F)F)C(C)C)[nH]4)cc3)cc2)[nH]1 [Compound P-124],>100
19,CC(C)[C@H](NC(=O)C(=O)C1(O)CCC(F)(F)CC1)c1ncc(-c2ccc(-c3ccc(-c4cnc([C@@H](NC(=O)C(=O)C5(O)CCC(F)(F)CC5)C(C)C)[nH]4)cc3)cc2)[nH]1 [Compound P-125],>100
20,COC1(C(=O)C(=O)N[C@H](c2ncc(-c3ccc(-c4ccc(-c5cnc([C@@H](NC(=O)C(=O)C6(OC)CCC(F)(F)CC6)C(C)C)[nH]5)cc4)cc3)[nH]2)C(C)C)CCC(F)(F)CC1 [Compound P-126],>100
21,CC(C)[C@H](NC(=O)C(=O)C1(CF)CCC(F)(F)CC1)c1ncc(-c2ccc(-c3ccc(-c4cnc([C@@H](NC(=O)C(=O)C5(CF)CCC(F)(F)CC5)C(C)C)[nH]4)cc3)cc2)[nH]1 [Compound P-127],>100

# Source: US20160158200A1, “Combinations of Hepatitis C Virus Inhibitors” (priority 2013, published 2016)
